Assay results from US20220339261A1, “ORAL PHARMACEUTICAL COMPOSITION INCLUDING TERIPARATIDE AND METHOD FOR PREPARING SAME” (ICURE BNP CO., LTD., priority 2019, published 2022).

What was measured:
[1] = Rat bioavailability / pharmacokinetics, plasma teriparatide by ELISA; details: for AUCinf / AUClast: mean ± SD (n = 4)
Procedure: After anesthesia by intraperitoneal injection of ketamine (45 mg/kg) and xylazine (5 mg/kg) to female Sprague-Dawley rats (200-250 g, 6-7 weeks old), the abdomen of the rat was cut to take out the small intestine, and Examples 1 and 4 and Comparative Examples 1 and 2 prepared above were dispersed in purified water, and then injected into a proximal jejunum in an amount corresponding to 100 μg/kg as teriparatide by 400 μL. In addition, in order to evaluate the relative bioavailability, 150 μL of teriparatide solution dissolved in physiological saline was subcutaneously injected at an amount corresponding to 20 μg/kg as teriparatide.
After drug administration, blood samples were collected 150 μL at regular time intervals and mixed with 3.8% aqueous sodium citrate solution of 50 μL. Thereafter, the blood sample was centrifuged for 15 minutes at 2,500×g, at 4° C., and plasma was collected and stored at −70° C. The teriparatide concentration in plasma was measured at a wavelength of 620 nm using the human PTH (1-34) ELISA kit (ALPCO Diagnostics, USA). The pharmacokinetic parameters are estimated through the non-compartment method using WinNonlin S Software (ver. 5.3; Pharsight Corporation, USA) and are shown in Table 6 and FIG. 1.

[2] = Parallel artificial membrane permeability assay (PAMPA), effective permeability of teriparatide; assay type: in vitro ADME; details: PBS pH 6.8, 200 μg/mL as teriparatide, room temperature, 5 hours, mean ± SD (n = 4)
Procedure: Effective permeability (Pe) through the artificial intestinal membrane of Examples 1 and Comparative Examples 1 to 7 prepared above was evaluated using the parallel artificial membrane permeability assay (PAMPA), which is an artificial intestinal membrane permeability evaluation system. First, the samples of Example 1 and Comparative Examples 1 to 7 were dissolved in phosphate buffer (PBS, pH 6.8) to a concentration of 200 μg/mL as teriparatide, and then 200 μL each was added to the donor part of the PAMPA system, and 300 μL of phosphate buffer (PBS, pH 6.8) was filled in the receiving part of the PAMPA system. […] Then, the solution of each well of the receiving part and the donor part was filtered through a membrane filter having a pore diameter of 0.45 μm, and then the concentration of teriparatide permeated through the artificial intestinal membrane was analyzed using the HPLC system under the following conditions.
50 μL of each sample was injected into the HPLC system, and acetonitrile (B) containing 0.1% (w/v) trifluoroacetic acid (TFA) aqueous solution (A) and 0.1% (w/v) TFA as mobile phases were separated by linearly changing the composition of mobile phase B from 51% to 76% for 25 minutes at a flow rate of 1.0 mL/min. Teriparatide was measured at 220 nm, and the effective transmittance (Pe) through the artificial intestinal membrane was calculated by Formula 1 below. […]

[3] = Apparent permeability through Caco-2 cell monolayer (Transwell); assay type: in vitro ADME; details: Caco-2 monolayer, 200 μM as teriparatide in HBSS, 37° C., up to 5 hours; mean ± SD (n = 4); read-out: Apparent transmittance (Papp)
Procedure: The apparent permeability of the complexes prepared as in Example 1 and Comparative Examples 1 to 7 to the intestinal cell membrane, Caco-2 cell membrane, was evaluated as follows. After Caco-2 cells were treated at a concentration of 1×10^5 cells/mL in 24-well Transwell, respectively, and after culturing the cells for 14 to 16 days, a cell monolayer of the electrical resistance (TEER) value through the Caco-2 cell membrane was >350 Ω·cm^2 was used for the experiment. First, the medium was removed from the Transwell, and then the donor part and receiving part were filled with HBSS and cultured at 37° C. for 20 minutes, then the TEER value was measured again, and then HBSS was removed. […] At 0.5, 1, 2, 3, 4, and 5 hours, 100 μL samples were collected from the receiving part, filtered using a membrane filter (pore 0.45 μm, PVDF), and the concentration of teriparatide permeated through the intestinal cell membrane was analyzed by HPLC under the conditions mentioned in Experimental Example 1. Apparent intestinal cell membrane permeability (Papp) was calculated using Formula 2 below, and the results are shown in Table 3. […]

[4] = female, Sprague-Dawley, plasma, sc, 0.02 mg/kg
[5] = subcutaneous injection, 0.02 mg/kg as teriparatide
[6] = dosing in jejunum, 0.1 mg/kg as teriparatide

Row | Structure (SMILES) | Cmax [1, 4] [ng/mL] | Tmax [1, 4] [min] | bioavailability [1, 4] [%] | AUCinf [1, 5] [ng ·) sh/mL] | AUClast [1, 5] [ng ·) sh/mL] | Effective transmittance (Pe) [2] | Papp [3] [×10⁻⁶ cm/s] | bioavailability ([1]; 0.1 mg/kg) [%] | AUCinf [1, 6] [ng ·) sh/mL] | AUClast [1, 6] [ng ·) sh/mL] | AUC(0-t) ([1]; in vivo, 0.1 mg/kg) [ng·h/mL] | Cmax ([1]; in vivo, 0.1 mg/kg) [ng/mL] | Tmax ([1]; in vivo, 0.1 mg/kg) [min]
1 | CC[C@H](C)[C@H](NC(=O)[C@H](CCC(=O)O)NC(=O)[C@H](CO)NC(=O)[C@@H](NC(=O)[C@@H](N)CO)C(C)C)C(=O)N[C@@H](CCC(N)=O)C(=O)N[C@@H](CC(C)C)C(=O)N[C@@H](CCSC)C(=O)N[C@@H](Cc1cnc[nH]1)C(=O)N[C@@H](CC(N)=O)C(=O)N[C@@H](CC(C)C)C(=O)NCC(=O)N[C@@H](CCCCN)C(=O)N[C@@H](Cc1cnc[nH]1)C(=O)N[C@@H](CC(C)C)C(=O)N[C@@H](CC(N)=O)C(=O)N[C@@H](CO)C(=O)N[C@@H](CCSC)C(=O)N[C@@H](CCC(=O)O)C(=O)N[C@@H](CCCN=C(N)N)C(=O)N[C@H](C(=O)N[C@@H](CCC(=O)O)C(=O)N[C@@H](Cc1c[nH]c2ccccc12)C(=O)N[C@@H](CC(C)C)C(=O)N[C@@H](CCCN=C(N)N)C(=O)N[C@@H](CCCCN)C(=O)N[C@@H](CCCCN)C(=O)N[C@@H](CC(C)C)C(=O)N[C@@H](CCC(N)=O)C(=O)N[C@@H](CC(=O)O)C(=O)N[C@H](C(=O)N[C@@H](Cc1cnc[nH]1)C(=O)N[C@@H](CC(N)=O)C(=O)N[C@@H](Cc1ccccc1)C(=O)O)C(C)C)C(C)C [Teriparatide] | 0.805 ± 0.209 | 15 | 100 | 0.765 ± 0.199 | 0.734 ± 0.191 | – | – | – | – | – | – | – | –
2 | CC[C@H](C)[C@H](NC(=O)[C@H](CCC(=O)O)NC(=O)[C@H](CO)NC(=O)[C@@H](NC(=O)[C@@H](N)CO)C(C)C)C(=O)N[C@@H](CCC(N)=O)C(=O)N[C@@H](CC(C)C)C(=O)N[C@@H](CCSC)C(=O)N[C@@H](Cc1cnc[nH]1)C(=O)N[C@@H](CC(N)=O)C(=O)N[C@@H](CC(C)C)C(=O)NCC(=O)N[C@@H](CCCCN)C(=O)N[C@@H](Cc1cnc[nH]1)C(=O)N[C@@H](CC(C)C)C(=O)N[C@@H](CC(N)=O)C(=O)N[C@@H](CO)C(=O)N[C@@H](CCSC)C(=O)N[C@@H](CCC(=O)O)C(=O)N[C@@H](CCCN=C(N)N)C(=O)N[C@H](C(=O)N[C@@H](CCC(=O)O)C(=O)N[C@@H](Cc1c[nH]c2ccccc12)C(=O)N[C@@H](CC(C)C)C(=O)N[C@@H](CCCN=C(N)N)C(=O)N[C@@H](CCCCN)C(=O)N[C@@H](CCCCN)C(=O)N[C@@H](CC(C)C)C(=O)N[C@@H](CCC(N)=O)C(=O)N[C@@H](CC(=O)O)C(=O)N[C@H](C(=O)N[C@@H](Cc1cnc[nH]1)C(=O)N[C@@H](CC(N)=O)C(=O)N[C@@H](Cc1ccccc1)C(=O)O)C(C)C)C(C)C [compound 1] | – | – | – | – | – | 0.582 ± 0.132 ×10^−6 cm/s | 0.362 ± 0.045 | 0.81 ± 0.191 | 0.031 ± 0.007 | 0.030 ± 0.007 | 0.03 ± 0.007 | 0.041 ± 0.01 | 19.8 ± 8.4
